Data taken from ChEMBL document CHEMBL1142468, “Discovery, SAR and X-ray structure of 1H-benzimidazole-5-carboxylic acid cyclohexyl-methyl-amides as inhibitors of inducible T-cell kinase (Itk)” (Bioorg Med Chem Lett, 2008).
Active and inactive are the calls of the source. No cut-off for these calls is given here.

Key:
[1] = molecular target: T1, Tyrosine-protein kinase ITK/TSK (Homo sapiens, UniProt Q08881); test: Inhibition of ITK by DELFIA assay
T1 sequence (Q08881 whole entry): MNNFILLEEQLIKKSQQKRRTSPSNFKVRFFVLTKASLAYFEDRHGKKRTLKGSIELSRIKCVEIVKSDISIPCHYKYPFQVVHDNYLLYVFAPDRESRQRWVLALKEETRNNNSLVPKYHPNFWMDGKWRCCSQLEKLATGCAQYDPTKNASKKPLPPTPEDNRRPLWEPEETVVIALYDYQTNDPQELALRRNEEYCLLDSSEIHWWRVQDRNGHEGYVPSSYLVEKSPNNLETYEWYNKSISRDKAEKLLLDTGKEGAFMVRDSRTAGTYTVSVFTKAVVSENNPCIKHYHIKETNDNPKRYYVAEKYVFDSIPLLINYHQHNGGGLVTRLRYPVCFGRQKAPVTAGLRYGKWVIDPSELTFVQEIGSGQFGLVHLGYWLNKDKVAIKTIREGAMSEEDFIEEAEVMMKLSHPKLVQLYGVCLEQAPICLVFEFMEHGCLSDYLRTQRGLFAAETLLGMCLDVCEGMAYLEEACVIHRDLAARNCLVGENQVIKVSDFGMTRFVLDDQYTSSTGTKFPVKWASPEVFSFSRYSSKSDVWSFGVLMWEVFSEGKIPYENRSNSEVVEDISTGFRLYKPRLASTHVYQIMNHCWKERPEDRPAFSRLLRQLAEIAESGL

[2] = molecular target: Insulin receptor (Homo sapiens, UniProt P06213); test: Inhibition of IRK
Sequence of Insulin receptor (P06213 28-758 limits assumed): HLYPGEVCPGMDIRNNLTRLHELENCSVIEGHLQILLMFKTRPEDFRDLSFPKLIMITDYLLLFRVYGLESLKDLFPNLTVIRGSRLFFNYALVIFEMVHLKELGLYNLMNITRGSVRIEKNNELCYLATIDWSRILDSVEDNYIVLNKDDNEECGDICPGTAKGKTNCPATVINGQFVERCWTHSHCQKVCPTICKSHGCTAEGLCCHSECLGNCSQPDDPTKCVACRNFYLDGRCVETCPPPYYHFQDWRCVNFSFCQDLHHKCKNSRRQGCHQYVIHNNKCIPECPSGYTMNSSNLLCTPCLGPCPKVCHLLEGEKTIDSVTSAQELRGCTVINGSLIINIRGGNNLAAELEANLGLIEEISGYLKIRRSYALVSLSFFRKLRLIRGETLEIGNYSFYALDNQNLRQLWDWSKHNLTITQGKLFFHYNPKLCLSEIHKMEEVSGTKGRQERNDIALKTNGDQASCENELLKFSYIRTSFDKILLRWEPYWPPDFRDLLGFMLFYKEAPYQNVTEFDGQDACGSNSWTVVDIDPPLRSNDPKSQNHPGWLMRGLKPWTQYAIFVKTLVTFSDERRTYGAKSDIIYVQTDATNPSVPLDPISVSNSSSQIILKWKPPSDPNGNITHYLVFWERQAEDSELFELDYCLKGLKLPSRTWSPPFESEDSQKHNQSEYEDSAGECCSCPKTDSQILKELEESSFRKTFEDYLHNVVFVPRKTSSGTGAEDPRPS
Sequence of Insulin receptor (P06213 763-1382 limits assumed): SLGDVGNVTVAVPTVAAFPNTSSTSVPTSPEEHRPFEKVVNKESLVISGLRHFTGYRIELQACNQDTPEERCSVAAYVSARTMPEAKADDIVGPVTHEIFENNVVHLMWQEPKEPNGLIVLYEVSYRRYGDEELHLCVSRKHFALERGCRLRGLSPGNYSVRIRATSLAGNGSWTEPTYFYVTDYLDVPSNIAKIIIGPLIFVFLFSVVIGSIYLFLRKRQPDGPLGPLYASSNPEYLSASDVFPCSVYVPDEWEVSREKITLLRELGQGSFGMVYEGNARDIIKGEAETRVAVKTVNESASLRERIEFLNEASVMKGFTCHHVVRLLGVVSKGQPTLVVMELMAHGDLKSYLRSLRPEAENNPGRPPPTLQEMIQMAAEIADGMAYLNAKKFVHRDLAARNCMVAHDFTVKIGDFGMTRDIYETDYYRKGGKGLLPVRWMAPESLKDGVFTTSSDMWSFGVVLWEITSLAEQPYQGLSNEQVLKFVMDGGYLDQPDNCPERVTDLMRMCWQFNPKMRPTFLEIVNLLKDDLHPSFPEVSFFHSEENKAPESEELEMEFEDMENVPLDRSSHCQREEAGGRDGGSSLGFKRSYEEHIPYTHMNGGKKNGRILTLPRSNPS

[3] = tested on: Mus musculus; test: Inhibition of anti-CD3-induced IL2 production in sc dosed mouse; format: functional, organism-based
[4] = molecular target: Tyrosine-protein kinase BTK (Homo sapiens) (UniProt Q06187); test: Inhibition of Btk
Sequence of Tyrosine-protein kinase BTK (Homo sapiens) (Q06187 whole entry): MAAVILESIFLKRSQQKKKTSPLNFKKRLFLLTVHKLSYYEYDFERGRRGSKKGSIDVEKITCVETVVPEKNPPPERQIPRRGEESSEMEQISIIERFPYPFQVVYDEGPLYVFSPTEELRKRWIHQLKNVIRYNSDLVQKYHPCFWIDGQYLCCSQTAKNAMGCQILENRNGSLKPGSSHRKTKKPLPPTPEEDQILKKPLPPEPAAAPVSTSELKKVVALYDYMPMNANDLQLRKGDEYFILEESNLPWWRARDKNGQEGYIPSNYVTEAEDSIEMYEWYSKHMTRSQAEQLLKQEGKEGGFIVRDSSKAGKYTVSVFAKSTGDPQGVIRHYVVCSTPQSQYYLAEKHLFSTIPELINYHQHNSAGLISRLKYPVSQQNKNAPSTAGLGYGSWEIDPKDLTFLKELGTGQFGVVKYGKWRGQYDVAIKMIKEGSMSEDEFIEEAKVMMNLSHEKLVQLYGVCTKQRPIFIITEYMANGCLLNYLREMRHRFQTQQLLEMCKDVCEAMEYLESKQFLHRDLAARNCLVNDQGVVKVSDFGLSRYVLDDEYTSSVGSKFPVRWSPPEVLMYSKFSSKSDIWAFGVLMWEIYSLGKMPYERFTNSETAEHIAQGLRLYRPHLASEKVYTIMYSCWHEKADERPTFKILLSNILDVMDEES

[5] = molecular target: Tyrosine-protein kinase Lyn (Homo sapiens) (UniProt P07948); test: Inhibition of Lyn kinase
Sequence of Tyrosine-protein kinase Lyn (Homo sapiens) (P07948 2-512 limits assumed): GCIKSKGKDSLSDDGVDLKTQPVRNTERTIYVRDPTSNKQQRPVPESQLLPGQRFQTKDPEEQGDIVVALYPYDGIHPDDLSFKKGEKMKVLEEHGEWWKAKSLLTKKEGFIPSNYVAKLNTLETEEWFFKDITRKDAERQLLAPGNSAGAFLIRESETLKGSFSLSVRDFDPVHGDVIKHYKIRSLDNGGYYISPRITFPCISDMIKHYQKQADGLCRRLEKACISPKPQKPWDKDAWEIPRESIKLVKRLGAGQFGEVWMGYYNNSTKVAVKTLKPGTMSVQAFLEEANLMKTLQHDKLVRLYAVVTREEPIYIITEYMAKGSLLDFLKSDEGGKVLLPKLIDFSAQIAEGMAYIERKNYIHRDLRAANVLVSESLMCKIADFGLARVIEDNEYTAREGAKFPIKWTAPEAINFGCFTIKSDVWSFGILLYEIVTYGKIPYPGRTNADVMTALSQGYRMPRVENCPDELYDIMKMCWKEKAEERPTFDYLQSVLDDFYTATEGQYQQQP

[6] = molecular target: Tyrosine-protein kinase SYK (Homo sapiens) (UniProt P43405); test: Inhibition of Syk
[7] = Inhibition of anti-CD3-induced IL2 secretion in mouse TH1 cells
[8] = tested on: Splenocyte; test: Inhibition of anti-CD3-induced IL2 secretion in mouse splenocytes
[9] = tested on: T-cell; test: Inhibition of anti-CD3/anti-CD28-induced IL2 secretion in human CD4+ T cells
[10] = molecular target: T1, Tyrosine-protein kinase ITK/TSK; test: Inhibition of human ITK expressed in chicken DT40 cells assessed as B cell receptor-stimulated calcium influx by FLIPR assay; format: cell-based

For `CN(C(=O)C1CCCCC1)c1ccc2c(c1)nc(NC(=O)c1ccc(C#N)cc1)n2CCc1ccc(Cl)cc1Cl`, which IC50 [1] is on record?
The IC50 was 2000 nM.

For `CN(C(=O)C1CCCCC1)c1ccc2c(c1)nc(CC(=O)c1ccc(Cl)cc1)n2CCc1ccccc1`, which IC50 [1] is on record?
Its IC50 is > 20000 nM.

Which IC50 [1] does the source give for `CN(C(=O)C1CCCCC1)c1ccc2c(c1)nc(NC(=O)c1ccc(C#N)cc1)n2CC(N)=O` here?
The IC50 was 73 nM.

Which IC50 [2] does the source give for `COc1ccc(C(=O)Nc2nc3cc(N(C)C(=O)C4CCCCC4)ccc3n2CCC(N)=O)cc1` here?
The IC50 was > 10000 nM.

For `COc1cccc(C(=O)Nc2nc3cc(N(C)C(=O)C4CCCCC4)ccc3n2CCC(N)=O)c1`, which IC50 [2] is on record?
Its IC50 is 550 nM.

With `CC(C)C(=O)N(C)c1ccc2c(c1)nc(NC(=O)c1ccc(C#N)cc1)n2CCC(N)=O` as the molecule, how does the IC50 [1] read?
The IC50 was 220 nM.

For `CC(=O)N1CCN(C(=O)c2cc(CSc3cnc(NC(=O)c4ccc(CNC(C)C(C)(C)C)cc4)s3)cc(C)c2C)CC1` (stereo not drawn), which Activity [3] is on record?
Its Activity is “Dose-dependent effect”.

Which IC50 [2] does the source give for `CC(=O)c1ccc(C(=O)Nc2nc3cc(N(C)C(=O)C4CCCCC4)ccc3n2CCC(N)=O)cc1` here?
The IC50 was > 10000 nM.

Which results are given for `CN(C(=O)C1CCCCC1)c1ccc2c(c1)nc(NC(=O)c1ccc(Br)cc1)n2CCC(N)=O`?
IC50 [1]: 3 nM; IC50 [2]: > 10000 nM

For `CCCCCCCn1c(NC(=O)c2ccc(C#N)cc2)nc2cc(N(C)C(=O)C3CCCCC3)ccc21`, which IC50 [1] is on record?
The IC50 was 4500 nM.

Which IC50 [1] does the source give for `CC(C)n1c(NC(=O)c2ccc(C#N)cc2)nc2cc(N(C)C(=O)C3CCCCC3)ccc21` here?
The IC50 was 35 nM.

What does the source list for `CN(C(=O)C1CCCCC1)c1ccc2c(c1)nc(NC(=O)c1cccc(Br)c1)n2CCC(N)=O`?
IC50 [1]: 9 nM; IC50 [2]: 95 nM

For `CN(C(=O)C1CCCCC1)c1ccc2c(c1)nc(NC(=O)c1cccc(C#N)c1)n2CCC(N)=O`, which IC50 [2] is on record?
Its IC50 is 125 nM.

With `Cc1ccc(C(=O)Nc2nc3cc(N(C)C(=O)C4CCCCC4)ccc3n2CCC(N)=O)cc1` as the molecule, how does the IC50 [2] read?
Its IC50 is > 10000 nM.

Which IC50 [1] does the source give for `CNC(=O)c1ccc(C(=O)Nc2nc3cc(N(C)C(=O)C4CCCCC4)ccc3n2CCC(N)=O)cc1` here?
Its IC50 is 1800 nM.

For `CN(C(=O)C1CCCCC1)c1ccc2c(c1)nc(NC(=O)c1cccs1)n2CCC(N)=O`, which Activity [4] is on record?
Its Activity is “inactive”.

And the Activity [5]?
Its Activity is “inactive”.

And the Activity [6]?
The Activity was “inactive”.

With `CNc1ccc2c(c1)nc(NC(=O)c1ccc(C#N)cc1)n2CCC(N)=O` as the molecule, how does the IC50 [1] read?
Its IC50 is 76 nM.

For `COCCCn1c(NC(=O)c2ccc(C#N)cc2)nc2cc(N(C)C(=O)C3CCCCC3)ccc21`, which IC50 [1] is on record?
The IC50 was 16 nM.

For `CN(C(=O)C1CCCCC1)c1ccc2c(c1)nc(N)n2CCC(N)=O`, which IC50 [1] is on record?
The IC50 was > 20000 nM.

Which IC50 [2] does the source give for `Cc1cccc(C(=O)Nc2nc3cc(N(C)C(=O)C4CCCCC4)ccc3n2CCC(N)=O)c1` here?
Its IC50 is 550 nM.

Which IC50 [1] does the source give for `CNC(=O)CCn1c(NC(=O)c2ccc(C#N)cc2)nc2cc(N(C)C(=O)C3CCCCC3)ccc21` here?
Its IC50 is 9 nM.

Which IC50 [1] does the source give for `CC(C(=O)C1CCCCC1)c1ccc2c(c1)nc(CC(=O)c1ccc(C#N)cc1)n2CCC(N)=O` (stereo not drawn) here?
The IC50 was 3 nM.

With `CN(C(=O)C1CCCCC1)c1ccc2c(c1)nc(NC(=O)c1ccc(Cl)cc1)n2CCC(N)=O` as the molecule, how does the IC50 [7] read?
Its IC50 is 440 nM.

And the IC50 [8]?
Its IC50 is 520 nM.

And the IC50 [9]?
The IC50 was 4100 nM.

Which IC50 [1] does the source give for `CN(C(=O)C1CCCCC1)c1ccc2c(c1)nc(NC(=O)c1ccc(C#N)cc1)n2CCCn1ccnc1` here?
The IC50 was 4 nM.

And the IC50 [10]?
The IC50 was 510 nM.

And the IC50 [7]?
The IC50 was 350 nM.

And the IC50 [9]?
The IC50 was 650 nM.
